We go through 7 molecules from ChEMBL document CHEMBL1131955, “Solid-phase synthesis of novel inhibitors of farnesyl transferase” (Bioorg Med Chem Lett, 1999).

SMILES strings stand for the structures. Some results are limits rather than exact numbers.

Assay [1] addresses Protein farnesyltransferase (Rattus norvegicus, UniProt Q02293+Q04631). As to the kind of experiment: In vitro inhibition of rat brain cytosol farnesyl transferase.
Assay [2] concerns the target geranylgeranyltransferase type-I (Rattus norvegicus, UniProt P53610+Q04631). Description: In vitro inhibition of rat brain cytosol Geranylgeranyl transferase type I.

On to `C=C(C)C1CC=C(COc2c(F)c(O)c([N+](=O)[O-])c(F)c2F)CC1` (centres undefined), for which the figures for the IC50 in assay [1] and in assay [2] were 120 µM and 85 µM, respectively.

As for `C=CCOc1c(F)c(O)c([N+](=O)[O-])c(F)c1F`, the IC50 in assay [1] and in assay [2] was above 200 µM each time.

Turning to `O=[N+]([O-])c1c(O)c(F)c(OCc2ccc3ccccc3c2)c(F)c1F`, the figures for the IC50 in assay [1] and in assay [2] were 200 µM and above 200 µM, respectively.

Take `CCCCCCCCCCCCOc1c(F)c(O)c([N+](=O)[O-])c(F)c1F`: the IC50 in assay [1] and in assay [2] was above 100 µM each time.

For the molecule `O=[N+]([O-])c1c(O)c(F)c(OCc2ccc(-c3ccccc3)cc2)c(F)c1F`, the figures for the IC50 in assay [1] and in assay [2] were 200 µM and above 200 µM, respectively.

In the case of `O=[N+]([O-])c1c(O)c(F)c(OCc2ccccc2)c(F)c1F`, the IC50 was above 200 µM in assay [1] and 58 µM in assay [2].

Regarding `CC(C)=CCC/C(C)=C/CC/C(C)=C/COc1c(F)c(O)c([N+](=O)[O-])c(F)c1F`, the IC50 in assay [1] came to 6.3 µM; in assay [2], 12.5 µM.
